Like-named read-outs stand apart in the source and are kept apart here.
Legend:
in vitro = conditions: human
[1] = test system: P. berghei-ANKA-GFP-LucCON liver stage parasites in HepG2-A16-CD81EGFP cells; assay: P. berghei liver stage Pb-Luc assay, Method 1 (UCSD, 1536-well); assay type: cell-based, Plasmodium berghei; conditions: Plasmodium berghei, 48 h, average of 2 wells on a 1536 well plate; for activity at 1 µM: 1 uM (compounds provided at 10 mM); for activity at 3 µM: 3 uM (compounds provided at 10 mM)
[2] = test system: Plasmodium falciparum Dd2 asexual blood stage parasites; assay: microbe, parasite or virus in culture; design: species or system Plasmodium falciparum Dd2 in human erythrocytes; single determination (one 11-point concentration-response curve); conditions: Plasmodium falciparum, DD2, Erythrocyte, 72 h
[3] = HepG2-A16-CD81EGFP cells, uninfected
[4] = column 11, read-out: Pb-Luc (P. berghei liver stage), % of control, lower concentration, first repeat
[5] = column 12, read-out: Pb-Luc (P. berghei liver stage), % of control, lower concentration, second repeat
[6] = column 8, read-out: Pb-Luc (P. berghei liver stage), % of control, higher concentration, first repeat
[7] = column 9, read-out: Pb-Luc (P. berghei liver stage), % of control, higher concentration, second repeat

Structure (SMILES)	viability at 48 h, 1 µM (in vitro; [3])	viability at 48 h, 3 µM (in vitro; [3])	AC50 ([2]; read-out: AC50)	also measured
c1cncc(-c2nnc(-c3cccnc3)nn2)c1 [MLS000075752-01]	98%	100%		activity at 1 µM [1, 4]: 110%; activity at 1 µM [1, 5]: 109%; activity at 3 µM [1, 6]: 109%; activity at 3 µM [1, 7]: 117%
Cc1cc(NC2C3CC4CC(C3)CC2C4)n2nnnc2n1 (stereo not shown) [MLS000033680-01]	99%	108%		activity at 1 µM [1, 4]: 124%; activity at 1 µM [1, 5]: 128%; activity at 3 µM [1, 6]: 108%; activity at 3 µM [1, 7]: 131%
COC(=O)[C@H]1[C@H]2C[C@@H]3c4[nH]c5cc(OC)ccc5c4CCN3C[C@H]2C[C@@H](OC(=O)/C=C/c2cc(OC)c(OC)c(OC)c2)[C@@H]1OC [MLS002153878-01]			5.31 µM	viability at 48 h (in vitro): 106%; viability at 48 h, 1 µM (in vitro): 106%
COc1ccc2ccc(O)c(CN3CC=C(c4ccccc4)CC3)c2c1 [MLS000760157-01]			8.41 µM	viability at 48 h, 1 µM (in vitro): 107%; viability at 48 h, 3 µM (in vitro): 101%
Cc1cc(C)cc(Nc2cc(C)nc3nc(C)nn23)c1 [MLS000116612-01]	112%		5.31 µM	viability at 48 h (in vitro; [3]): 112%
CCN1CCCC1CNc1ncnc2c1[nH]c1ccc(Cl)cc12 (stereo not shown) [MLS000041736-01]	98.5%			viability at 48 h (in vitro; [3]): 98.5%; AC50 [2]: 2.99 µM
COc1ccc(NC2=NC3(CCCCC3)N=C(N)N2)cc1 [MLS000090248-01]	113%	97%		activity at 1 µM [1, 4]: 133%; activity at 1 µM [1, 5]: 110%; activity at 3 µM [1, 6]: 100%; activity at 3 µM [1, 7]: 80%
CCCc1nnc(NC(=O)c2cn(CC)c3cc(N4CCN(C)CC4)c(F)cc3c2=O)s1 [MLS001049245-01]			8.41 µM	viability at 66 h (in vitro; [3]): 105%
O=C1C=C(O)C=CC1=CNNc1ccnc2cc(Cl)ccc12 [MLS000759655-01]	101%		0.596 µM	viability at 48 h (in vitro; [3]): 101%
CCC1(OC(=O)CN)C(=O)OCc2c1cc1n(c2=O)Cc2cc3ccccc3nc2-1 (stereo not shown) [MLS000766263-01]				viability (in vitro): 24.7%; AC50 [2]: 6.68 µM
O=C(/C=C/c1ccco1)NC(S)=Nc1ccccc1N1CCCC1 [MLS000663784-01]	107%		2.66 µM	viability at 48 h (in vitro; [3]): 107%
COc1ccc(Cc2nnc(NC(=O)c3ccc(OC)cc3OC)s2)cc1 [MLS001211969-01]	100%	104%		activity at 1 µM [1, 4]: 125%; activity at 1 µM [1, 5]: 130%; activity at 3 µM [1, 6]: 128%; activity at 3 µM [1, 7]: 128%
C=C(C)COc1ccc(-c2ncnc(C(F)(F)F)c2-c2ccccc2)c(O)c1 [MLS001216193-01]	104%	97%	2.37 µM	
C#CCN1c2ccccc2Sc2cccnc21 [MLS001166384-01]			6.68 µM	viability at 66 h (in vitro; [3]): 99.6%
CCCn1c2c(c(=N)c3c1CCC3)CCCC2 [MLS000702605-01]			10.6 µM	viability at 66 h (in vitro; [3]): 93.8%
Cc1nccn1CC(O)Cn1c2ccccc2c2ccccc21 (stereo not shown) [MLS000527796-01]	103%		8.41 µM	viability at 48 h (in vitro; [3]): 103%
O=C1c2ccccc2C2=Nc3ccccc3SC(c3ccccc3F)C12 (stereo not shown) [MLS000562246-01]	99%	95%	4.73 µM	
CCOC(=O)C1=C(c2ccccc2)N=c2sc(=Cc3cc(OC)c(OC)c(OC)c3)c(=O)n2C1c1cccs1 (stereo not shown) [MLS000572607-01]	82%	81%	5.96 µM	
Cc1cn(-c2cc(C(=O)Nc3ccc(C)c(NC(=O)C(=O)c4c[nH]c5ccccc45)c3)cc(C(F)(F)F)c2)cn1 [MLS003105973-01]	112%		2.11 µM	viability at 48 h (in vitro; [3]): 112%
Oc1cc2c(cc1CN1CCN(c3cccc(C(F)(F)F)c3)CC1)CCC2 [MLS000570420-01]	102%	101%	0.944 µM	

Structure (SMILES)	viability at 48 h, 1 µM (in vitro; [3])	viability at 48 h, 3 µM (in vitro; [3])	AC50 ([2]; read-out: AC50)	also measured
Oc1ccc(Cl)cc1CNCc1ccc(C(F)(F)F)cc1 [MLS002207454-01]			4.22 µM	viability at 66 h (in vitro; [3]): 109%
COc1cccc(CNCC(O)(c2ccc(Cl)cc2)c2ccc(Cl)cc2)c1 [MLS000325699-01]	106%	101%		activity at 1 µM [1, 4]: 124%; activity at 1 µM [1, 5]: 99%; activity at 3 µM [1, 6]: 99%; activity at 3 µM [1, 7]: 98%
Cc1cc(Nc2cccc(F)c2)nc(NCc2ccccc2)n1 [MLS000589387-01]	98%	87%	8.41 µM	
COc1ccc(C2=C(Nc3ccc(C)cc3)c3ccccc3C2=O)cc1 [MLS000563980-01]	96%	90%	4.73 µM	
CN(C)c1cc[n+](Cc2ccccc2)cc1 [MLS000070144-01]			10.6 µM	viability at 66 h (in vitro; [3]): 96.5%
Cc1nn(-c2nnc(NCc3ccccc3)nn2)c(C)c1Br [MLS000704225-01]	105%	92%	0.841 µM	
CCOC(=O)c1c(C)n(-c2ccc(F)cc2)c2ccc(O)cc12 [MLS001195957-01]	109%	93%	6.68 µM	
C/C(Cl)=C/Cc1c(C)nc2c(ccc3ccccc32)c1O [MLS001211902-01]	86%	92%	0.841 µM	
COc1cccc(N=C(S)N2CCN(S(=O)(=O)c3ccc(F)cc3)CC2)c1 [MLS001230093-01]	91%	89%	2.66 µM	
CCCNC(=O)c1ccc(N2CCC3(CC2)CC(c2cccc(Br)c2)=NO3)c(NC(=O)c2ccco2)c1 [MLS001074397-01]	118%	104%	2.99 µM	
Oc1ccc(Cl)cc1CNCc1cccc2ccccc12 [MLS002207460-01]	103%	107%	0.841 µM	
O=c1c2ccccc2nc(/C=C/c2cc(Br)ccc2O)n1CCCO [MLS001197097-01]			9.44 µM	viability at 66 h (in vitro; [3]): 103%
Cc1ccc(S(=O)(=O)NC(=O)Nc2ccc(N(C)C)cc2)cc1 [MLS001098045-01]	100%	99%	1.33 µM	
O=C(Nc1ccc(N2CCCCC2)c(Cl)c1)c1nnc[nH]1 [MLS000035389-01]	101%	99%	4.73 µM	
c1ccc2c(NCCc3c[nH]c4ccccc34)c3ccccc3nc2c1 [MLS001195935-01]	92%	83%	1.88 µM	
CCN1CCN(Cc2ccc(NC(=O)c3ccc(C)c(NC(=O)C(=O)c4c[nH]c5ccccc45)c3)cc2C(F)(F)F)CC1 [MLS003105967-01]			1.5 µM	viability at 66 h (in vitro; [3]): 106%
O=S(=O)(c1ccc2ccccc2c1)N1CCN(C(S)=Nc2ccc(F)c(Cl)c2)CC1 [MLS000394708-01]	111%	98%	1.06 µM	
COc1ccccc1NC(=O)CN1CCN(C(=O)c2ccco2)CC1 [MLS000122729-01]	101%	101%		activity at 1 µM [1, 4]: 130%; activity at 1 µM [1, 5]: 101%; activity at 3 µM [1, 6]: 50%; activity at 3 µM [1, 7]: 80%
CC(C)Cc1cc(C(=O)Nc2cc(Br)ccc2O)no1 [MLS000116399-01]	120%	110%	4.73 µM	
CN(CCNC(=O)c1cc2c(-c3ccccc3F)nn(C)c2s1)C1CCCCC1 [MLS001199243-01]	84%	84%	5.96 µM	

From article PMC7822874, “Chemoprotective antimalarials identified through quantitative high-throughput screening of Plasmodium blood and liver stage parasites” (Scientific Reports, 2021)
